Experimental data reported in US20160272617A1, “SUBSTITUTED PHENYLALANINE DERIVATIVES” (BAYER PHARMA AKTIENGESELLSCHAFT, priority 2013, published 2016).
pIC50: −log10 of the molar value. Where a name gives a salt, the structure may show the parent alone.

Key:
human factor XIa = target: T1, human factor XIa (Homo sapiens, UniProt P03951); experiment: Measurement of FXIa inhibition (fluorogenic peptide substrate Boc-Glu(OBzl)-Ala-Arg-AMC); type: biochemical; details: factor XIa from Kordia, 15 min preincubation, 30 min at 22° C., fluorescence
T1 construct: purchased Kordia
T1 sequence (P03951 388-625 limits assumed): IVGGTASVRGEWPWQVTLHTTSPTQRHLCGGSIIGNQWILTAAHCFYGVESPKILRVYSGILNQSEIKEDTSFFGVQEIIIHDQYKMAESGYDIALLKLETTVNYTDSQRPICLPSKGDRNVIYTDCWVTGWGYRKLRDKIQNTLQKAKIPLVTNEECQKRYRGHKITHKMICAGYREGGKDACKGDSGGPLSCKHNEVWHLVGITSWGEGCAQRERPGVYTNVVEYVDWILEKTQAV
T1 sequence (P03951 19-387 partner limits assumed): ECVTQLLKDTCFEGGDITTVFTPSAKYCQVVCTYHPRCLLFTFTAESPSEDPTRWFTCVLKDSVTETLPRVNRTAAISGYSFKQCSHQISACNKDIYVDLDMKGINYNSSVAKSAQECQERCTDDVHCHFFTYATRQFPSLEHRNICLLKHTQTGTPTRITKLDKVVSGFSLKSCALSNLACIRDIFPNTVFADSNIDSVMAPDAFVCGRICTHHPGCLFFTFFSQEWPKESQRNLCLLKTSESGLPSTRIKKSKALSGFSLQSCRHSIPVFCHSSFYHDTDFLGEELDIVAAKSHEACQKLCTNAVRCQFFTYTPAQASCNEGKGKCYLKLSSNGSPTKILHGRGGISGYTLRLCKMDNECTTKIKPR
Method: The factor XIa inhibition of the inventive substances is determined using a biochemical test system which utilizes the reaction of a peptidic factor XIa substrate to determine the enzymatic activity of human factor XIa. Here, factor XIa cleaves from the peptic factor XIa substrate the C-terminal aminomethylcoumarin (AMC), the fluorescence of which is measured. The determinations are carried out in microtitre plates.
Test substances are dissolved in dimethyl sulphoxide and serially diluted in dimethyl sulphoxide (3000 μM to 0.0078 μM; resulting final concentrations in the test: 50 μM to 0.00013 μM). In each case 1 μl of the diluted substance solutions is placed into the wells of white microtitre plates from Greiner (384 wells). Subsequently, the following are added successively: 20 μl of assay buffer (50 mmol/l Tris buffer pH 7.4; 100 mmol/l sodium chloride; 5 mmol/l calcium chloride; 0.1% bovine serum albumin) and 20 μl of factor XIa from Kordia (0.45 nM in assay buffer). After 15 min of incubation, the enzyme reaction is started by addition of 20 μl of the factor XIa substrate Boc-Glu(OBzl)-Ala-Arg-AMC dissolved in assay buffer (10 μM in assay buffer) from Bachem, the mixture is incubated at room temperature (22° C.) for 30 min and fluorescence is then measured (excitation: 360 nm, emission: 460 nm). The measured emissions of the test mixtures with test substance are compared to those of control mixtures without test substance (only dimethyl sulphoxide instead of test substance in dimethyl sulphoxide), and the IC50 values are calculated from the concentration/activity relationships.

human and animal plasma = experiment: Determination of anticoagulatory activity: activated partial thromboplastin time (aPTT) in plasma; details: concentration of test substance which brings about a 1.5-fold extension of the aPTT; plasma species not given
Method: The anticoagulatory activity of the test substances is determined in vitro in human and animal plasma (for example mouse, rat, rabbit, pig and dog plasma). To this end, blood is drawn off in a mixing ratio of sodium citrate/blood of 1:9 using a 0.11 molar sodium citrate solution as receiver. Immediately after the blood has been drawn off, it is mixed thoroughly and centrifuged at about 4000 g for 15 minutes. The supernatant is pipetted off.
The activated partial thromboolastin time (aPTT) is determined in the presence of varying concentrations of test substance or the corresponding solvent using a commercial test kit (C. K. Prest from Diagnostica Stago). The test compounds are incubated with the plasma and the PTT reagent (cephalin, kaolin) at 37° C. for 3 minutes. Coagulation is then started by addition of a 25 mM aqueous calcium chloride solution, and the time when coagulation occurs is determined. The concentration of test substance which brings about a 1.5-fold extension of the aPTT is determined.

SMILES	pIC50 (human factor XIa)	aPTT (human and animal plasma) [µmol/L]
Cc1cc(C(=O)N[C@H]2CC[C@H](O)CC2)ccc1-c1ccc(CC(NC(=O)[C@H]2CC[C@H](CN)CC2)C(=O)Nc2ccc(-c3nnc(C(F)(F)C(F)(F)C(=O)O)[nH]3)cc2)cc1 (mixture of isomers) [Example 103, 3-[5-(4-{[2-({[trans-4-(Aminomethyl)cyclohexyl]carbonyl}amino)-3-{4′-[(trans-4-hydroxycyclohexyl)carbamoyl]-2′-methylbiphenyl-4-yl}propanoyl]amino}phenyl)-4H-1,2,4-triazol-3-yl]-2,2,3,3-tetrafluoropropanoic acid hydrochloride (enantiomer mixture)]	8.96	0.1
Cc1cc(C(=O)N[C@H]2CC[C@H](O)CC2)ccc1-c1ccc(CC(NC(=O)[C@H]2CC[C@H](CN)CC2)C(=O)Nc2ccc(-c3nnc(C(F)(F)C(F)(F)C(=O)O)[nH]3)cc2)cc1 (mixture of isomers) [Example 131, 3-[5-(4-{[2-({[trans-4-(Aminomethyl)cyclohexyl]carbonyl}amino)-3-{4′-[(trans-4-hydroxycyclohexyl)carbamoyl]-2′-methylbiphenyl-4-yl}propanoyl]amino}phenyl)-4H-1,2,4-triazol-3-yl]-2,2,3,3-tetrafluoropropanoic acid (enantiomer mixture)]		0.2
Cc1cc(C(=O)N[C@H]2CC[C@H](O)CC2)ccc1-c1ccc(C[C@H](NC(=O)[C@H]2CC[C@H](CN)CC2)C(=O)Nc2ccc(-c3nnc(C(F)(F)C(F)(F)C(=O)O)[nH]3)cc2)cc1 (single isomer, unassigned; enantiomer 1) [Example 104]	9.40	0.05
CCN(CC)CCNC(=O)c1ccc(-c2ccc(C[C@H](NC(=O)[C@H]3CC[C@H](CN)CC3)C(=O)Nc3ccc(-c4nn[nH]n4)cc3)cc2)c(C)c1.Cl [Example 2, 4′-[(2S)-2-({[trans-4-(Aminomethyl)cyclohexyl]carbonyl}amino)-3-oxo-3-{[4-(2H-tetrazol-5-yl)phenyl]amino}propyl]-N-[2-(diethylamino)ethyl]-2-methylbiphenyl-4-carboxamide hydrochloride]	8.31	0.14
Cc1cc(C(=O)NCCN)ccc1-c1ccc(C[C@H](NC(=O)[C@H]2CC[C@H](CN)CC2)C(=O)Nc2ccc3cn[nH]c3c2)cc1 [Example 3, N-(2-Aminoethyl)-4′-[(2S)-2-({[trans-4-(aminomethyl)cyclohexyl]carbonyl}amino)-3-(1H-indazol-6-ylamino)-3-oxopropyl]-2-methylbiphenyl-4-carboxamide hydrochloride]	7.96	0.2
Cc1cc(C(=O)NC2CCNCC2)ccc1-c1ccc(C[C@H](NC(=O)[C@H]2CC[C@H](CN)CC2)C(=O)Nc2ccc3cn[nH]c3c2)cc1 [Example 4, 4′-[(2S)-2-({[trans-4-(Aminomethyl)cyclohexyl]carbonyl}amino)-3-(1H-indazol-6-ylamino)-3-oxopropyl]-2-methyl-N-(piperidin-4-yl)biphenyl-4-carboxamide hydrochloride]	7.92	0.21
Cc1cc(C(=O)N2CCNCC2)ccc1-c1ccc(C[C@H](NC(=O)[C@H]2CC[C@H](CN)CC2)C(=O)Nc2ccc3cn[nH]c3c2)cc1 [Example 5, trans-4-(Aminomethyl)-N-{(2S)-1-(1H-indazol-6-ylamino)-3-[2′-methyl-4′-(piperazin-1-ylcarbonyl)biphenyl-4-yl]-1-oxopropan-2-yl}cyclohexanecarboxamide hydrochloride]	7.80	0.21
CCN(CC)CCNC(=O)c1ccc(-c2ccc(C[C@H](NC(=O)[C@H]3CC[C@H](CN)CC3)C(=O)Nc3ccc4cn[nH]c4c3)cc2)c(C)c1 [Example 6, 4′-[(2S)-2-({[trans-4-(Aminomethyl)cyclohexyl]carbonyl}amino)-3-(1H-indazol-6-ylamino)-3-oxopropyl]-N-[2-(diethylamino)ethyl]-2-methylbiphenyl-4-carboxamide hydrochloride]	7.77	0.21
Cc1cc(C(=O)N[C@@H]2CCNC2)ccc1-c1ccc(C[C@H](NC(=O)[C@H]2CC[C@H](CN)CC2)C(=O)Nc2ccc(-c3nn[nH]n3)cc2)cc1 [Example 8, 4′-[(2S)-2-({[trans-4-(Aminomethyl)cyclohexyl]carbonyl}amino)-3-oxo-3-{[4-(2H-tetrazol-5-yl)phenyl]amino}propyl]-2-methyl-N-[(3R)-pyrrolidin-3-yl]biphenyl-4-carboxamide hydrochloride]	8.60	0.09
Cc1cc(C(=O)N[C@H]2CCNC2)ccc1-c1ccc(C[C@H](NC(=O)[C@H]2CC[C@H](CN)CC2)C(=O)Nc2ccc(-c3nn[nH]n3)cc2)cc1 [Example 9, 4′-[(2S)-2-({[trans-4-(Aminomethyl)cyclohexyl]carbonyl}amino)-3-oxo-3-{[4-(2H-tetrazol-5-yl)phenyl]amino}propyl]-2-methyl-N-[(3S)-pyrrolidin-3-yl]biphenyl-4-carboxamide hydrochloride]	8.77	0.09
CCN(CC)CCNC(=O)c1ccc(-c2ccc(C[C@H](NC(=O)[C@H]3CC[C@H](CN)CC3)C(=O)Nc3ccc(-c4nn[nH]n4)cc3)cc2)c(Cl)c1 [Example 10, 4′-[(2S)-2-({[trans-4-(Aminomethyl)cyclohexyl]carbonyl}amino)-3-oxo-3-{[4-(2H-tetrazol-5-yl)phenyl]amino}propyl]-2-chloro-N-[2-(diethylamino)ethyl]biphenyl-4-carboxamide hydrochloride]	8.36	0.13
NC[C@H]1CC[C@H](C(=O)N[C@@H](Cc2ccc(-c3ccc(C(=O)NC4CCNCC4)cc3Cl)cc2)C(=O)Nc2ccc(-c3nn[nH]n3)cc2)CC1 [Example 11, 4′-[(2S)-2-({[trans-4-(Aminomethyl)cyclohexyl]carbonyl}amino)-3-oxo-3-{[4-(2H-tetrazol-5-yl)phenyl]amino}propyl]-2-chloro-N-(piperidin-4-yl)biphenyl-4-carboxamide hydrochloride]	8.60	0.08
Cc1cc(C(=O)NC2CCC(O)C2)ccc1-c1ccc(CC(NC(=O)C2CCC(CN)CC2)C(=O)Nc2ccc(-c3nnn[nH]3)c(F)c2)cc1 [Example 92, 4′-[(2S)-2-({[trans-4-(Aminomethyl)cyclohexyl]carbonyl}amino)-3-{[3-fluoro-4-(2H-tetrazol-5-yl)phenyl]amino}-3-oxopropyl]-N-(3-hydroxycyclopentyl)-2-methylbiphenyl-4-carboxamide hydrochloride]	8.74	
Cc1cc(C(=O)NC2CCN(C)CC2)ccc1-c1ccc(C[C@H](NC(=O)[C@H]2CC[C@H](CN)CC2)C(=O)Nc2ccc(-c3nc(C(F)(F)C(F)(F)C(=O)O)n[nH]3)cc2)cc1 [Example 130, 3-[5-(4-{[(2S)-2-({[trans-4-(Aminomethyl)cyclohexyl]carbonyl}amino)-3-{2′-methyl-4′-[(1-methylpiperidin-4-yl)carbamoyl]biphenyl-4-yl}propanoyl]amino}phenyl)-1H-1,2,4-triazol-3-yl]-2,2,3,3-tetrafluoropropanoic acid]		0.12
